Data reported in ChEMBL document CHEMBL4052585 (J Med Chem, 2017).
In brackets after ≈: the same amount, converted by molar mass.

Experiments:
[1] = target: T1, Mitogen-activated protein kinase kinase kinase 14 (Homo sapiens, UniProt Q99558); experiment: Inhibition of NIK (unknown origin) after 1 to 2 hrs by ADP-FP assay
[2] = target: PI3-kinase p110-delta/p85-alpha (Homo sapiens, UniProt O00329); experiment: Inhibition of N-terminal His6-tagged recombinant full-length human p110delta/untagged recombinant full length human p85alpha expressed in baculovirus infected Sf21 insect cells using PIP2:3PS lipid substrate after 120 mins by ADP-Glo assay
Chain of PI3-kinase p110-delta/p85-alpha (P27986 whole entry): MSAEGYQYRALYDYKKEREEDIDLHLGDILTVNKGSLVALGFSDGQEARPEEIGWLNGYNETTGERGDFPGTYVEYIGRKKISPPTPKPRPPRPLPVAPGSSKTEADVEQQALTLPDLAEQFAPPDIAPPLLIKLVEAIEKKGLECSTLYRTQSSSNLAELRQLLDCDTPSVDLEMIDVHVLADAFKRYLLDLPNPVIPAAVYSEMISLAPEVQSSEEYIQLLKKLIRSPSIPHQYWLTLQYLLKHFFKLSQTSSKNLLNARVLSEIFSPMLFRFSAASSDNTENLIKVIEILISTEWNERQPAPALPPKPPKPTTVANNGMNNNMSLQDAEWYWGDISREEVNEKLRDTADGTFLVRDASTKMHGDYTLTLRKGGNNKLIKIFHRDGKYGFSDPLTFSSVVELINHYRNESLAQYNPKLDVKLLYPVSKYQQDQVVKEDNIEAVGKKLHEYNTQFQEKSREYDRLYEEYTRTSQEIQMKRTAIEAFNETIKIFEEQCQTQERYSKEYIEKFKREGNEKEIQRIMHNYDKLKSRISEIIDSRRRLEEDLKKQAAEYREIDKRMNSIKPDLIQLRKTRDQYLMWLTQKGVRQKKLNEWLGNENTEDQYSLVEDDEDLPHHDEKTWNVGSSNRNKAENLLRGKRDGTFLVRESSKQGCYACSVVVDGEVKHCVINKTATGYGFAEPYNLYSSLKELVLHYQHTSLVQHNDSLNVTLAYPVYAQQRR
Chain of PI3-kinase p110-delta/p85-alpha (O00329 whole entry): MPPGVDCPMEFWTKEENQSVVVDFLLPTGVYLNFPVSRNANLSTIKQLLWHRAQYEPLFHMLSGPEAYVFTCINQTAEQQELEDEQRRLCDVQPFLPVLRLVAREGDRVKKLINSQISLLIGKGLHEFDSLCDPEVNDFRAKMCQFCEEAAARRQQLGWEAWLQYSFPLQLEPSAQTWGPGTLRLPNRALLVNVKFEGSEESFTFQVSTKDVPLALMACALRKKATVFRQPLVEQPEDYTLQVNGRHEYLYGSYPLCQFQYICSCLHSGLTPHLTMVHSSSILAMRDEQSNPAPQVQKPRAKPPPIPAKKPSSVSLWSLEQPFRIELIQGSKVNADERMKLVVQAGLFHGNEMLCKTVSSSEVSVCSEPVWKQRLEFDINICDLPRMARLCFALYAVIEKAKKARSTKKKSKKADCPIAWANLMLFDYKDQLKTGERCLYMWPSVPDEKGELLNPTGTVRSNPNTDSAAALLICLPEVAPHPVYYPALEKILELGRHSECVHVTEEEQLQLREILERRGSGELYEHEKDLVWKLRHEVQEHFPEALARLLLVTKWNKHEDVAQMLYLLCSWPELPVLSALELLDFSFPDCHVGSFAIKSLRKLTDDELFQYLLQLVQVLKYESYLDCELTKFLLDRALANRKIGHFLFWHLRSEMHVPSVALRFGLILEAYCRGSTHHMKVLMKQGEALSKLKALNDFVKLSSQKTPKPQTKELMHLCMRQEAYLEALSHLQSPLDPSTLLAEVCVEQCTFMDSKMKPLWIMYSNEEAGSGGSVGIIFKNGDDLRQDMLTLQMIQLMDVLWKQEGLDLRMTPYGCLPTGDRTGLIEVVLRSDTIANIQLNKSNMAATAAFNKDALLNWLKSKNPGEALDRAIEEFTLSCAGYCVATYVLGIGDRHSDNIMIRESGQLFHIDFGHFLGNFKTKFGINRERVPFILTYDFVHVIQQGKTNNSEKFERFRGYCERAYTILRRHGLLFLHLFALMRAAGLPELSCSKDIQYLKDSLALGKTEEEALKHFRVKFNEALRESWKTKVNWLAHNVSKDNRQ

[3] = physchem; details: buffer, pH 7.4
[4] = target: T1, Mitogen-activated protein kinase kinase kinase 14; experiment: Binding affinity to NIK (unknown origin) by SPR method
[5] = target: T1, Mitogen-activated protein kinase kinase kinase 14; experiment: Inhibition of NIK (unknown origin) expressed in HEK293 cells assessed as decrease in NFkappaB signal after 24 hrs by dual glo luciferase reporter gene assay; assay type: cell-based
[6] = Oral bioavailability in beagle dog at 5 mg/kg; assay type: ADME, organism-based, Canis lupus familiaris; details: in vivo
[7] = Plasma clearance in beagle dog; assay type: ADME, Canis lupus familiaris
[8] = target: T1, Mitogen-activated protein kinase kinase kinase 14; experiment: Inhibition of NIK in human HeLa cells assessed as decrease in antilymphotoxin-beta receptor antibody-stimulated p52 translocation from cytoplasm to nucleus after 5 hrs; assay type: cell-based
[9] = Protein binding in human plasma; assay type: ADME, cell-free; details: read-out: PPB (converted)
[10] = Volume of distribution in Sprague-Dawley rat; assay type: ADME; details: in vivo
[11] = Plasma clearance in Sprague-Dawley rat; assay type: ADME
[12] = Thermodynamic solubility of compound at pH 7.4; assay type: physicochemical; details: buffer, read-out: Therm_solubility
[13] = Oral bioavailability in Sprague-Dawley rat at 5 mg/kg; assay type: ADME, organism-based; details: in vivo
[14] = Volume of distribution in beagle dog; assay type: ADME, Canis lupus familiaris; details: in vivo
[15] = Apparent permeability across MDCK cells at 100 uM; assay type: ADME, cell-based, Canis lupus familiaris; details: dog
[16] = Plasma clearance in cynomolgus monkey; assay type: ADME, Macaca fascicularis
[17] = tested on: HEK293; experiment: Cytotoxicity against HEK293 cells assessed as effect on cell viability after 24 hrs by HSV-TK reporter assay; assay type: cell-based; details: Homo sapiens, HEK293, 24 h
[18] = Volume of distribution in cynomolgus monkey; assay type: ADME, Macaca fascicularis; details: in vivo

T1 sequence (Q99558 whole entry): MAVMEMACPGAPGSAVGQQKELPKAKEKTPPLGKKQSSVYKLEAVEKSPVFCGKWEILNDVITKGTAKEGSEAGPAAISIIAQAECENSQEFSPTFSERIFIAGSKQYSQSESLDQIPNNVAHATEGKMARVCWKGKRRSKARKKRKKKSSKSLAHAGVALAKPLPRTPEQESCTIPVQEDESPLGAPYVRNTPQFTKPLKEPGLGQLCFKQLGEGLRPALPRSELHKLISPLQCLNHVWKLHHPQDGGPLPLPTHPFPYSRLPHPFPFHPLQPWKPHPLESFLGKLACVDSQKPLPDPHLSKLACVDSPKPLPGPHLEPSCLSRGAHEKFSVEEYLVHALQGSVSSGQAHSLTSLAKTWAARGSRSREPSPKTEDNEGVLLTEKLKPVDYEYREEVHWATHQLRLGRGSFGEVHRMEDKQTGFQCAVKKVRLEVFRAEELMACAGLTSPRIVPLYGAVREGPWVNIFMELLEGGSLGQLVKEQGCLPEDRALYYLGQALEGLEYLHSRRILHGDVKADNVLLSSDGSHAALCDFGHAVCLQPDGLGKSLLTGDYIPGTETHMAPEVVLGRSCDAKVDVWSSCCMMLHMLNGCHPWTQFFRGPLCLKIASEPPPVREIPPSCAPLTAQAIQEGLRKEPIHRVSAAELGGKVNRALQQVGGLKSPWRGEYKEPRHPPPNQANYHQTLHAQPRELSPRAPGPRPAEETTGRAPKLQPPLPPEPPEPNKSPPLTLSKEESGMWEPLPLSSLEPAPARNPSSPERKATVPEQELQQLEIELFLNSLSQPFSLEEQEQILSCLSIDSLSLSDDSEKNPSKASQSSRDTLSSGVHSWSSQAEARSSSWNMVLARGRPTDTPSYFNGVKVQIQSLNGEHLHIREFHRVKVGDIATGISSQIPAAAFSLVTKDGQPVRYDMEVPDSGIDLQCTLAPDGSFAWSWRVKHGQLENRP

Structure (SMILES)	Ki [1] [µM]	Ki [2] [µM]	logD [3]	other results
Cn1nccc1Cc1c(C(N)=O)nc2n1CCOc1cc(F)c(C#CC(C)(C)O)cc1-2	0.0099	> 1	–	–
NC(=O)c1cn2c(n1)-c1cc(C#CC3(O)CCC3)c(F)cc1OCC2	0.0202	–	3.4	–
CN(C)C(=O)C(C)(O)C#Cc1cc2c(cc1F)OCCn1cc(C(N)=O)nc1-2 (centres undefined)	0.986	–	1.4	–
CC(O)(C#Cc1cc2c(cc1F)OCCn1cc(C(N)=O)nc1-2)c1nccs1 (racemic)	0.0015	–	2.4	–
CN1CCCC(O)(C#Cc2cc3c(cc2F)OCCn2cc(C(N)=O)nc2-3)C1=O (racemic)	0.003	–	1.5	–
CC(C)(O)C#Cc1cc2c(cc1F)OCCn1c-2nc(C(N)=O)c1-c1cn[nH]c1	0.007	> 1	1.8	–
NC(=O)c1cccn1Cc1ccccc1Cl	–	–	–	Kd [4]: 69 µM
CNC(=O)c1c(C(N)=O)nc2n1CCOc1ccc(C#C[C@@](C)(O)c3cc(C)on3)cc1-2	0.00047	> 1	3	IC50 [5]: 0.04 µM; bioavailability [6]: 140%; clearance [7]: 0.42 L/h/kg; IC50 [8]: 0.067 to 0.087 µM; fraction unbound [9]: 0.06; Vd [10]: 1.4 L/kg; clearance [11]: 0.42 L/h/kg; solubility thermodynamic [12]: 0.009 mg/mL (≈ 20.7 µM); bioavailability [13]: 51%; Vd [14]: 1.1 L/kg; Papp at 100 µM [15]: 75 nm/s; clearance [16]: 1.26 L/h/kg; IC50 [17]: 13 µM; Vd [18]: 0.9 L/kg
Cc1cc([C@](C)(O)C#Cc2cc3c(cc2F)OCCn2cc(C(N)=O)nc2-3)no1	–	0.047	1.1	IC50 [5]: 0.156 µM; IC50 [8]: 0.607 µM; IC50 [17]: > 20 µM
CN1CC[C@](O)(C#Cc2cc3c(cc2F)OCCn2cc(C(N)=O)nc2-3)C1=O	–	–	0.94	–
NC(=O)c1cn2c(n1)-c1cc(C#CC3(O)COC3)c(F)cc1OCC2	4.28	–	1.2	–
Cc1cc([C@](C)(O)C#Cc2cc3c(cc2F)C2CC(C2)n2cc(C(N)=O)nc2-3)no1	0.0004	> 1	3.3	IC50 [5]: 0.102 µM; IC50 [8]: 0.199 µM; fraction unbound [9]: 0.09; Vd [10]: 0.84 L/kg; clearance [11]: 1.44 L/h/kg; solubility thermodynamic [12]: 0.032 mg/mL (≈ 78.7 µM); bioavailability [13]: 27%; Papp at 100 µM [15]: 101 nm/s; clearance [16]: 0.78 L/h/kg; IC50 [17]: > 20 µM; Vd [18]: 1.9 L/kg
NC(=O)c1ccc2c(n1)-c1sccc1CCO2	1.28	–	2.5	–
CC(C)(O)C#Cc1cc2c(cc1F)OCCn1c-2nc(C(N)=O)c1Cc1ccccc1F	0.0075	> 1	3.4	–
CN1CC[C@@](O)(C#Cc2cc3c(cc2F)OCCn2cc(C(N)=O)nc2-3)C1=O	–	–	0.74	–
CC(O)(C#Cc1cc2c(cc1F)OCCn1cc(C(N)=O)nc1-2)c1cccnn1 (racemic)	0.0032	–	1.4	–

The next lines start with results.

Ki [1] [µM]	Ki [2] [µM]	logD [3]	Structure (SMILES)	other results
–	> 1	–	C[C@@H]1Cn2cc(C(N)=O)nc2-c2cc(C#CC(C)(C)O)ccc2O1	–
0.028	0.216	2.4	CC(C)(O)C#Cc1ccc2c(c1)-c1nc(C(N)=O)sc1CCO2	–
0.04	> 1	–	CC(C)(O)C#Cc1ccc2c(c1)-c1nc(C(N)=O)sc1C(F)(F)CO2	–
–	> 1	1.4	CN(C)C(=O)c1c(C(N)=O)nc2n1CCOc1cc(F)c(C#CC(C)(C)O)cc1-2	–
0.31	0.32	1.4	CC(C)(O)C#Cc1ccc2c(c1)-c1nc(C(N)=O)cn1CCO2	–
–	> 1	–	C[C@H]1Cn2cc(C(N)=O)nc2-c2cc(C#CC(C)(C)O)ccc2O1	–
0.041	> 1	1.9	CC(C)(O)C#Cc1cc2c(cc1F)OCCn1c-2nc(C(N)=O)c1C1CC1	–
0.101	> 1	–	CC(C)(O)C#Cc1ccc2c(c1)-c1nc(C(N)=O)sc1C(O)CO2 (racemic)	–
0.036	–	1.7	CC(C)(O)C#Cc1cc2c(cc1F)OCCn1cc(C(N)=O)nc1-2	–
0.0355	> 1	2.2	Cc1c(C(N)=O)nc2n1CCOc1cc(F)c(C#CC(C)(C)O)cc1-2	–
0.02	> 1	–	CC(C)(O)C#Cc1ccc2c(c1)-c1nc(C(N)=O)cn1C1CC2C1	–
0.0029	> 1	–	CC(C)(O)C#Cc1cc2c(cc1F)C1CC(C1)n1cc(C(N)=O)nc1-2	–
0.0087	–	–	CC(O)(C#Cc1cc2c(cc1F)OCCn1cc(C(N)=O)nc1-2)CF (racemic)	–
0.201	> 1	1.6	CC(C)(O)C#Cc1cc2c(cc1F)OCCn1c-2nc(C(N)=O)c1C#N	–
0.002	> 1	2.5	CNC(=O)c1c(C(N)=O)nc2n1CCOc1cc(F)c(C#CC(C)(C)O)cc1-2	–
